Read-outs that look alike come from different tables or passages of the source.
Columns and labels:
Assay type in all cases: in vivo, human
[1] = Multiple ascending dose (MAD) part, plasma pharmacokinetics; conditions: for AUC(0-t) / AUC(0-inf) / Cmax / half-life / Vd/F / Tmax: human, plasma, Day 1; for AUC(0-t): po; for AUC(0-t) / AUC(0-inf) / Cmax / half-life / Vd/F: mean; for Vd/F: read-out: Vz/F; for Tmax: median
Protocol: Three cohorts of eight subjects each (six on active and two on placebo) were enrolled and received the following treatments orally: 100 mg, 200 mg, and 400 mg ASD-in-Capsule b.i.d. (one dose on Days 1 and 8, twice-daily doses from Days 2 to 7) (FIG. 4).
(§1) Blood samples were collected post-dosing on Day 1 (at 0.5, 1, 2, 3, 4, 6, 8, 12, and 16 hours) and Day 8 (at 0.5, 1, 2, 3, 4, 6, 8, 10, 12, 16, 20, 24, 30, 36, and 48 hours) as well as immediately pre-morning dose on Days 2-7 and 2 hours post-morning dose on Days 4 and 6. Within 15 minutes of collection, blood samples were centrifuged at 2000 rpm for 10 minutes at 4° C., and, subsequently, the plasma was aliquoted, frozen, and stored at −70° C. pending PK analyses.
(§2) The samples were subjected to liquid chromatography followed by analyses by tandem mass spectrometry. The lower limit of quantification for the compound of formula (I) was 5 ng/mL.
(§3) The plasma PK parameters were derived by non-compartmental analyses using Phoenix® WinNonlin® version 6.3 or higher (Pharsight Corporation Inc., Mountain View, CA, USA). PK variables were summarized using arithmetic mean, standard deviation, median, minimum, maximum, the percent coefficient of variation, geometric mean, and a two-sided 95% confidence limit of the arithmetic mean and the geometric mean.

[2] = Food effect (FE) part, plasma pharmacokinetics; conditions: for AUC / AUC(0-inf) / Cmax / AUC(0-t) / half-life / Vd/F / Tmax: human, plasma, po, 200 mg; for AUC: read-out: AUC0- GM; for Vd/F: read-out: Vz/F; for Tmax: median
Protocol: (§4) In this part, eight subjects received 200 mg ASD-in-Capsule orally as a single dose in a randomized way, once under fasting conditions and once after the intake of a high fat breakfast, with a wash-out period of one week between successive dosing (FIG. 4).
as §1, §2, §3
For the evaluations of food effect on the PK profile of the compound of formula (I), the analysis of variance (ANOVA) model included sequence, treatment, and period as fixed effects and subject nested within sequence as a random effect using the SASR mixed model procedure. Each ANOVA included calculation of Least Squares Means (LSM), the difference between LSM under fed condition (Test) over fasted condition (Reference), and the standard error associated with this difference.

[3] = Food effect (FE) part, safety and tolerability; conditions: for Adverse events possibly-related to drug administration: 200 mg, ASD formulation
Protocol: as §4
Safety and tolerability were assessed at pre-specified timepoints throughout the studies by AEs reporting, vital signs measurements, physical examination, laboratory tests, and ECG examinations.
Safety and tolerability data were evaluated for the treated population (all participants who took at least one dose of study medications). […] Descriptive statistics were used to evaluate the for safety and tolerability data and for plasma concentrations and PK parameters of the compound of formula (I).

[4] = Treatment A (100 mg ASD-in-Capsule oral)
[5] = Treatment B (200 mg ASD-in-Capsule oral)
[6] = Treatment C (400 mg ASD-in-Capsule oral)
[7] = 200 mg single oral dose, fed over fasted, geometric least-squares mean ratio
[8] = Treatment D: single oral dose 200 mg ASD-in-Capsule, fasted, mean
[9] = Treatment E: single oral dose 200 mg ASD-in-Capsule, fed (high-fat, high-calorie breakfast), mean

With `Cc1cccc(COc2ccc(Sc3ccoc3C3NC(=O)NC3=O)cc2)c1` (centres unmarked) [compound of formula (I)] the AUC(0-t) ([1]; 200 mg, Treatment B (200 mg ASD-in-Capsule oral), read-out: AUC0-12) was 7810 ng·h/mL, the AUC(0-t) ([1]; 200 mg, Treatment B (200 mg ASD-in-Capsule oral), read-out: AUC0-24) was 9720 ng·h/mL and the AUC(0-t) ([1]; 200 mg, Treatment B (200 mg ASD-in-Capsule oral), read-out: AUC0-t) was 9710 ng·h/mL. The AUC(0-t) ([1]; 400 mg, Treatment C (400 mg ASD-in-Capsule oral), read-out: AUC0-12) was 14600 ng·h/mL, the AUC(0-t) ([1]; 400 mg, Treatment C (400 mg ASD-in-Capsule oral), read-out: AUC0-24) was 18200 ng·h/mL and the AUC(0-t) ([1]; 400 mg, Treatment C (400 mg ASD-in-Capsule oral), read-out: AUC0-t) was 18200 ng·h/mL. For the same compound, the AUC(0-inf) [1, 4] was 3550 ng·h/mL, the Cmax [1, 4] was 448 ng/mL and the half-life [1, 4] was 6.9 h. The Vd/F [1, 4] was 291 L, the Tmax [1, 4] was 1 h and the AUC(0-inf) [1, 5] was 10400 ng·h/mL. For the same compound, the Cmax [1, 5] was 1200 ng/mL, the half-life [1, 5] was 6.02 h and the Vd/F [1, 5] was 176 L. For the same compound, the Tmax [1, 5] was 1.02 h, the AUC(0-inf) [1, 6] was 19900 ng·h/mL and the Cmax [1, 6] was 2730 ng/mL. The half-life [1, 6] was 6.48 h, the Vd/F [1, 6] was 212 L and the Tmax [1, 6] was 1 h. The “AUC ratio (Day 8/Day 1)” value ([1]; twice-daily administration, all three dose levels) was “approximately 1.7 fold”, the “AUC0- GMR Treatment E/D” value [2, 7] was 103.42 percentage and the “AUC0-inf GMR Treatment E/D” value [2, 7] was 102.76 percentage. For the same compound, the “Cmax GMR Treatment E/D” value [2, 7] was 74.53 percentage, the CL/F [2, 8] was 32.3 L/h and the Kel [2, 8] was 0.0796 h⁻¹. The CL/F [2, 9] was 32.3 L/h, the Kel [2, 9] was 0.0917 h⁻¹ and the AUC ([2]; Treatment D: 200 mg single oral dose, fasted, geometric least-squares mean) was 6260 ng·h/mL. For the same compound, the AUC(0-inf) ([2]; Treatment D: 200 mg single oral dose, fasted, geometric least-squares mean, read-out: AUC0-inf GM) was 6400 ng·h/mL, the Cmax ([2]; Treatment D: 200 mg single oral dose, fasted, geometric least-squares mean, read-out: Cmax GM) was 1020 ng/mL and the AUC(0-t) [2, 8] was 6490 ng·h/mL. It also gave a half-life [2, 8] of 9.36 h, an AUC(0-inf) ([2]; Treatment D: single oral dose 200 mg ASD-in-Capsule, fasted, mean, read-out: AUC0-inf) of 6620 ng·h/mL and a Cmax ([2]; Treatment D: single oral dose 200 mg ASD-in-Capsule, fasted, mean, read-out: Cmax) of 1050 ng/mL. It also gave a Vd/F [2, 8] of 446 L, a Tmax ([2]; Treatment D: single oral dose 200 mg ASD-in-Capsule, fasted) of 1 h and an AUC ([2]; Treatment E: 200 mg single oral dose, fed, geometric least-squares mean) of 6480 ng·h/mL. The AUC(0-inf) ([2]; Treatment E: 200 mg single oral dose, fed, geometric least-squares mean, read-out: AUC0-inf GM) was 6580 ng·h/mL, the Cmax ([2]; Treatment E: 200 mg single oral dose, fed, geometric least-squares mean, read-out: Cmax GM) was 764 ng/mL and the AUC(0-t) [2, 9] was 6800 ng·h/mL. It also gave a half-life [2, 9] of 8.09 h, an AUC(0-inf) ([2]; Treatment E: single oral dose 200 mg ASD-in-Capsule, fed (high-fat, high-calorie breakfast), mean, read-out: AUC0-inf) of 6900 ng·h/mL and a Cmax ([2]; Treatment E: single oral dose 200 mg ASD-in-Capsule, fed (high-fat, high-calorie breakfast), mean, read-out: Cmax) of 787 ng/mL. For the same compound, the Vd/F [2, 9] was 383 L, the Tmax ([2]; Treatment E: single oral dose 200 mg ASD-in-Capsule, fed (high-fat, high-calorie breakfast)) was 2.5 h and the “Adverse events possibly-related to drug administration” value ([3]; Food effect fasting status) was “headache”. The “Adverse events possibly-related to drug administration” value ([3]; Food effect fed status) was “headache” and the “Total number of AEs possibly related to treatment” value ([3]; food effect part, in one subject) was “two”.

— patent US20240277670A1, “SAFE USE OF MMP-12 INHIBITOR” (Foresee Pharmaceuticals Co., Ltd., priority 2021, published 2024)
